This note sets out measurements from paper PMC10765884, “MC180295 is a highly potent and selective CDK9 inhibitor with preclinical in vitro and in vivo efficacy in cancer” (Clinical Epigenetics, 2024).

The target in one assay is T1, CDK14/cyclin Y (PFTK1) (Homo sapiens, UniProt O94921).
T1 construct: purchased Reaction Biology Corp
Put plainly: CDK enzymatic assay. The assay is classed as biochemical. Conditions: Fig. 1A. As for the experimental part:
(§1) CDK enzymatic assays were performed by Reaction Biology Corp. (Malvern, PA), using 10 µM ATP for determining MC180295 IC50 values for each CDK family member for which assays were available. Kinase enzymatic assays were also performed by Nanosyn (Santa Clara, CA), using microfluidic technology and MC180295 IC50 curves against 10 CDKs. Selectivity against CDK9 was confirmed for the enantiomers at Reaction Biology Corp. (Malvern, PA).

For a further assay, the target named is T2, CDK16/cyclin Y (PCTAIRE) (Homo sapiens, UniProt Q00536).
T2 construct: purchased Reaction Biology Corp
Put plainly: CDK enzymatic assay. It counts as biochemical. Conditions: Fig. 1A. As for the experimental part: as §1

Another assay has as its target T3, CDK17/cyclin Y (PCTK2) (Homo sapiens, UniProt Q00537).
T3 construct: purchased Reaction Biology Corp
Description: CDK enzymatic assay. It counts as biochemical. Conditions: Fig. 1A. Here is the method: as §1

For a further assay, the target named is T4, CDK18/cyclin Y (PCTK3) (Homo sapiens, UniProt Q07002).
T4 construct: purchased Reaction Biology Corp
T4 sequence (Q07002 whole entry): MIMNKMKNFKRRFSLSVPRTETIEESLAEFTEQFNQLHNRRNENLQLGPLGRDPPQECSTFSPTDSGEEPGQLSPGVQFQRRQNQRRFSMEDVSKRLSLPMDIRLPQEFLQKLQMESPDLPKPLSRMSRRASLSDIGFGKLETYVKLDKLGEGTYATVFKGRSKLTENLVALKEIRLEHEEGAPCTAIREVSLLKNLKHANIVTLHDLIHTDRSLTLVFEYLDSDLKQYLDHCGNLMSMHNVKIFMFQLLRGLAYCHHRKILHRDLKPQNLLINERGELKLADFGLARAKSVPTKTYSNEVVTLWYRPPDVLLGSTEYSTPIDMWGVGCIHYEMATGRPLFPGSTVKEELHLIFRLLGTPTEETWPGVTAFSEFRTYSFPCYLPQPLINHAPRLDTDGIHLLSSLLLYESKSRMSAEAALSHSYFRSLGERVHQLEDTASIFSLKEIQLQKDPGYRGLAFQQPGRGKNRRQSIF
T4 sequence (Q8ND76 whole entry partner): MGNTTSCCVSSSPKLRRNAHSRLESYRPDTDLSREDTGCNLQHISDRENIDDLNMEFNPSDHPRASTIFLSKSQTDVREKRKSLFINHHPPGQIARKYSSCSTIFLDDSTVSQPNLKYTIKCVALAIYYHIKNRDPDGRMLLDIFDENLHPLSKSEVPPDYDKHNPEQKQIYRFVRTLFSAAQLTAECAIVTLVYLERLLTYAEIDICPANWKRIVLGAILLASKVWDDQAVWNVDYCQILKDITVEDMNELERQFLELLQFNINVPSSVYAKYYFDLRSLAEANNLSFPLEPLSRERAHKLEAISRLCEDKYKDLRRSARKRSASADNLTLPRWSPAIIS
Description: CDK enzymatic assay. The assay is classed as biochemical. The following applies: Fig. 1A. Here is the method:
as §1

The target of another assay is T5, CDK19/cyclin C (Homo sapiens, UniProt Q9BWU1).
T5 construct: purchased Reaction Biology Corp
Put plainly: CDK enzymatic assay. The assay is classed as biochemical. The following applies: Fig. 1A. Here is the method: as §1

The target of the next assay is T6, CDK3/cyclin E2 (Homo sapiens, UniProt Q00526).
T6 construct: purchased Reaction Biology Corp
T6 sequence (Q00526 whole entry): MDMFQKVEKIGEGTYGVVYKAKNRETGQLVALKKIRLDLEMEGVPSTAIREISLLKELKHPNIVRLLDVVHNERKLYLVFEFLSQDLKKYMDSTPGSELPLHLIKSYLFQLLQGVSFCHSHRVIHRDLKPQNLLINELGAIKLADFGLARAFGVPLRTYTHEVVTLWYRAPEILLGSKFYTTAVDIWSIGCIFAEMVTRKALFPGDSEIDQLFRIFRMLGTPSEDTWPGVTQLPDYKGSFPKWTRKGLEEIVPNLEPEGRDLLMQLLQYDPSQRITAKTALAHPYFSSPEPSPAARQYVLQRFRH
T6 sequence (O96020 whole entry partner): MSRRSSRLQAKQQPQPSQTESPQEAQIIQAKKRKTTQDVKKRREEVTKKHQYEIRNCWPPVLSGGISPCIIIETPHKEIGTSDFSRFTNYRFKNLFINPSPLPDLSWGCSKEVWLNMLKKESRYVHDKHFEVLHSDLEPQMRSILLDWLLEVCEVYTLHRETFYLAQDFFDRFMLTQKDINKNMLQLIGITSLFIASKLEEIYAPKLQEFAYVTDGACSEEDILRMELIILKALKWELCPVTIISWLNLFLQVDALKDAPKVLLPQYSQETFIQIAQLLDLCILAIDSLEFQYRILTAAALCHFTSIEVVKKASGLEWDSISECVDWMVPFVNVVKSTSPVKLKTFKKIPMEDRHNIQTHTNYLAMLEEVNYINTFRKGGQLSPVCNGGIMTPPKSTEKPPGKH
Description: CDK enzymatic assay. The assay is classed as biochemical. Conditions: Fig. 1A. Here is the method:
as §1

In another assay the target is T7, CDK6-Cyclin D3 (Homo sapiens, UniProt Q00534).
T7 construct: purchased Nanosyn
T7 sequence (Q00534 whole entry): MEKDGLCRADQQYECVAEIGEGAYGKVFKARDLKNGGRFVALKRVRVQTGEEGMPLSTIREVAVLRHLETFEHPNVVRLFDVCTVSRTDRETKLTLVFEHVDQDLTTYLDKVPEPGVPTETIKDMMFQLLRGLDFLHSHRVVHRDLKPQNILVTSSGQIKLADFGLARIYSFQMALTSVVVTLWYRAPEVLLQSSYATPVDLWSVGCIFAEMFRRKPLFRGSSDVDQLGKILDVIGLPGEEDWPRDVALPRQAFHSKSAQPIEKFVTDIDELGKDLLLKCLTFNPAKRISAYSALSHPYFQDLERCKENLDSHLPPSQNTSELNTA
T7 sequence (P30281 whole entry partner): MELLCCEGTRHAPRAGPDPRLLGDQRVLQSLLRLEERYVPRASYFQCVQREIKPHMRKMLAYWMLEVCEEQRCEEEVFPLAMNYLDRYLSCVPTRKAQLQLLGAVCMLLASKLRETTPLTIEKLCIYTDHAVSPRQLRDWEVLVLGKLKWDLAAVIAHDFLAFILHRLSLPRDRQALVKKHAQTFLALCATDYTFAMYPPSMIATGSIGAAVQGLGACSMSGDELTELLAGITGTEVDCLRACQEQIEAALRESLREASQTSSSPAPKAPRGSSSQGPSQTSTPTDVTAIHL
Put plainly: CDK enzymatic assay. The assay is classed as biochemical. The following applies: Fig. 1A. Here is the method:
as §1

Another assay addresses T8, CDK8/cyclin C (Homo sapiens, UniProt P49336).
T8 construct: purchased Reaction Biology Corp
Put plainly: CDK enzymatic assay. The following applies: Fig. 1A. It counts as biochemical. Here is the method:
as §1

Another assay concerns the target T9, CDK9/cyclin K (Homo sapiens, UniProt P50750).
T9 construct: purchased Reaction Biology Corp
Put plainly: CDK enzymatic assay. Conditions: Fig. 1A. It counts as biochemical. As for the experimental part:
as §1

The next assay concerns the target CDK9/cyclin T1 (Homo sapiens, UniProt P50750). Put plainly: CDK enzymatic assay. It counts as biochemical. Conditions: Fig. 1A. Here is the method:
as §1

For another assay, the target named is T10, CDK9/cyclin T2 (Homo sapiens, UniProt P50750).
T10 construct: purchased Reaction Biology Corp
T10 sequence (P50750 whole entry): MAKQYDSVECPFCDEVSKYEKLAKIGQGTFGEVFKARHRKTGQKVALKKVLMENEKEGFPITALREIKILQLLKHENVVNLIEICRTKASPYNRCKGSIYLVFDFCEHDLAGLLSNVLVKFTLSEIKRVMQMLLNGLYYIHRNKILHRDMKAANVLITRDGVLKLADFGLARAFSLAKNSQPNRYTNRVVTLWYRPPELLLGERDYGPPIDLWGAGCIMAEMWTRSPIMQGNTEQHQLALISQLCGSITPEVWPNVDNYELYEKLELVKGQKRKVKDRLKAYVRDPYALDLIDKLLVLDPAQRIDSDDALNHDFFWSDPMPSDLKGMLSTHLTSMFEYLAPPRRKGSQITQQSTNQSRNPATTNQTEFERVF
T10 sequence (O60583 whole entry partner): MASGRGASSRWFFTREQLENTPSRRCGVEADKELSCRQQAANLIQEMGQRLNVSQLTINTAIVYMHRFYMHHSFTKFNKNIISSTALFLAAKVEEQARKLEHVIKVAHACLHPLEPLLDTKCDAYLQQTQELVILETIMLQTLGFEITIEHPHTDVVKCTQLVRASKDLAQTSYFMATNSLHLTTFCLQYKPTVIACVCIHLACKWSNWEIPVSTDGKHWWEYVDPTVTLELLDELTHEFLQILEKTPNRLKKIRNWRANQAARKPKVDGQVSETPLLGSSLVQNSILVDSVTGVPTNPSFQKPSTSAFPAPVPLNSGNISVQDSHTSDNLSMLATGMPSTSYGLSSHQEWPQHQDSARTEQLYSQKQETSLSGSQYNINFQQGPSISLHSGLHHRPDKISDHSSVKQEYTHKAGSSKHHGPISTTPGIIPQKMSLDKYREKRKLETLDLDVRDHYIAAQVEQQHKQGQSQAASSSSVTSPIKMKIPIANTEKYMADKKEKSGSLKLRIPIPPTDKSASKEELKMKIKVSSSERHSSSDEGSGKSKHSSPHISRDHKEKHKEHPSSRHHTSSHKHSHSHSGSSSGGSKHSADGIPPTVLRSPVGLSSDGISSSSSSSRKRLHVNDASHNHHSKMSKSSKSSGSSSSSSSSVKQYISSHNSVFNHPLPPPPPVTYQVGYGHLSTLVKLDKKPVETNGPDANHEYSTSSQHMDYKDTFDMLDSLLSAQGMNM
Description: CDK enzymatic assay. It counts as biochemical. Conditions: Fig. 1A. Here is the method: as §1

In a further assay the test system is CaCO2. Put plainly: Growth inhibition (cell counting, day 5). It counts as cell-based. Conditions: Homo sapiens, Caco-2; Colon. Here is the method:
(§2) The live-cell assay for GFP reactivation in YB5 cells was done as previously described. Cells were treated with a single dose of drug 24 h after seeding at low density, and GFP fluorescence measured in a Millipore Guava flow cytometer (EMD, Millipore) instrument, or by imaging in a Cytation instrument (Agilent). Cancer cell lines (listed in Additional file 1: Fig. S1A) were obtained from ATCC or the Temple/Fox Chase Cellular Repository and cultured in the recommended medium. To measure growth inhibition, cells were seeded in 96-well plates at 40% confluency. Fresh medium was changed the next day and drugs were added directly. Drug-free fresh medium was changed on the fourth day. The cells were collected on day 5 by trypsin, suspended in medium, mixed with trypan blue (Thermo Fisher Scientific) (1:1 ratio), and counted using a LUNA II automated cell counter. Each sample was counted at least three times, and average numbers used for the analysis. Each treatment condition was performed in biological triplicates.

For another assay, the system named is Cama-1. Put plainly: Growth inhibition (cell counting, day 5). It counts as cell-based. Conditions: Homo sapiens, Breast. As for the experimental part:
as §2

The subject of the next assay is HS936T. Description: Growth inhibition (cell counting, day 5). It counts as cell-based. Conditions: Melanoma. Here is the method: as §2
In a further assay the test system is J-Tag. Description: Growth inhibition (cell counting, day 5). The assay is classed as cell-based. Conditions: Leukemia. As for the experimental part:
as §2

The subject of another assay is KG-1a. Description: Growth inhibition (cell counting, day 5). The assay is classed as cell-based. The following applies: Homo sapiens, Leukemia. As for the experimental part: as §2
In a further assay the test system is M14. Description: Growth inhibition (cell counting, day 5). The assay is classed as cell-based. Conditions: Homo sapiens, Melanoma. As for the experimental part:
as §2

A further assay relates to MOLM-13. Put plainly: Growth inhibition (cell counting, day 5). Conditions: Homo sapiens, Leukemia. The assay is classed as cell-based. As for the experimental part:
as §2

The next assay concerns MV4-11. Put plainly: Growth inhibition (cell counting, day 5). The assay is classed as cell-based. Conditions: Homo sapiens, Leukemia. Here is the method: as §2
In another assay the test system is UC6. Description: Growth inhibition (cell counting, day 5). The assay is classed as cell-based. The following applies: Bladder. Here is the method:
as §2

In another assay the test system is VACCC257. Put plainly: Growth inhibition (cell counting, day 5). The following applies: Melanoma. The assay is classed as cell-based. As for the experimental part:
as §2

The test system of a further assay is HT29 cells. Put plainly: HT29 colon cancer xenograft in NSG mice. It counts as in vivo. Conditions: HT29 s.c. in NSG mice, 20 mg/kg i.p. q.o.d. Here is the method: Fig. 3 Antitumor, survival, and metabolic effects of MC180295 and its enantiomers, MC180379 and MC180380. A Antitumor effects of MC180295, MC180379, and MC180380. NSG mice were inoculated (s.c.) with 2 × 10^6 SW48 cells. Eleven days later, when tumors were palpable, 20 mg/kg MC180295, MC180379, MC180380, or vehicle were administered (i.p.) every other day (q.o.d.). Tumor sizes were measured using a caliper. […] C Antitumor effects of MC180379 and MC180380. NSG mice were inoculated (s.c.) with 1 × 10^6 HT29 cells. Twelve days later, when tumors were palpable, 20 mg/kg MC180379, MC180380, or vehicle were administered (i.p.) q.o.d. Tumor sizes were measured using a caliper. D HT29-xenografted mouse survival following (i.p.) q.o.d. dosing with 20 mg/kg MC180379 or MC180380. E NSG mice were inoculated (i.p.) with 5 × 10^5 MV4-11-luc cells. Four days later, when substantial tumor burden was evident by bioluminescence imaging, MC180379, MC180380, or vehicle were administered (i.p.) q.o.d at 20 mg/kg. Luciferase expression was quantified and calculated. F Mouse survival in days. […] G In vitro liver microsome stability and rat hepatocyte/Sprague–Dawley stability assay comparing MC180379 to MC180380. The dog breed was beagle and the mouse microsome strain was CD-1. […] Significances were calculated using log-rank (Mantel-Cox) or Student’s t tests. […]

Chain of CDK9/cyclin T1 (P50750 whole entry): as the sequence (P50750 whole entry) above
Chain of CDK9/cyclin T1 (O60563 whole entry partner): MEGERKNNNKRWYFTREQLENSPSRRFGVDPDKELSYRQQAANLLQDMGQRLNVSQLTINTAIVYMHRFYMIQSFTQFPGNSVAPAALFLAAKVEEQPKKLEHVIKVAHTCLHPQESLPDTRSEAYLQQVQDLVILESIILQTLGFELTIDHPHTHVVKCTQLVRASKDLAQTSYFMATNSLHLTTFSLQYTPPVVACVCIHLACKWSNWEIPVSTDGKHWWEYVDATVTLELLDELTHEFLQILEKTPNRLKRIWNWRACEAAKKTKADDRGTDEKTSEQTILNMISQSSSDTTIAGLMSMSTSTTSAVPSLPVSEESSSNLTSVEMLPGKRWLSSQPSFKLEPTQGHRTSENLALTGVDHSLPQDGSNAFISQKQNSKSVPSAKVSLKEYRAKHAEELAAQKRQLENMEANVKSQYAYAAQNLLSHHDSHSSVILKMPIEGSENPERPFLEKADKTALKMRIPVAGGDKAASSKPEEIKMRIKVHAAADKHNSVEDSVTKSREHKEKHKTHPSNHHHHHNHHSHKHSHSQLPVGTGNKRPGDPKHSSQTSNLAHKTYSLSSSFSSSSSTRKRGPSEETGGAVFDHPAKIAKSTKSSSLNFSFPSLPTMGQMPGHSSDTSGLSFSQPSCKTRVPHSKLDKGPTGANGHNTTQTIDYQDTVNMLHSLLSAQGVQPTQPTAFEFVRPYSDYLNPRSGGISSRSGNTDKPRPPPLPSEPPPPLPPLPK
T9 sequence (P50750 whole entry): as the sequence (P50750 whole entry) above
T9 sequence (O75909 whole entry partner): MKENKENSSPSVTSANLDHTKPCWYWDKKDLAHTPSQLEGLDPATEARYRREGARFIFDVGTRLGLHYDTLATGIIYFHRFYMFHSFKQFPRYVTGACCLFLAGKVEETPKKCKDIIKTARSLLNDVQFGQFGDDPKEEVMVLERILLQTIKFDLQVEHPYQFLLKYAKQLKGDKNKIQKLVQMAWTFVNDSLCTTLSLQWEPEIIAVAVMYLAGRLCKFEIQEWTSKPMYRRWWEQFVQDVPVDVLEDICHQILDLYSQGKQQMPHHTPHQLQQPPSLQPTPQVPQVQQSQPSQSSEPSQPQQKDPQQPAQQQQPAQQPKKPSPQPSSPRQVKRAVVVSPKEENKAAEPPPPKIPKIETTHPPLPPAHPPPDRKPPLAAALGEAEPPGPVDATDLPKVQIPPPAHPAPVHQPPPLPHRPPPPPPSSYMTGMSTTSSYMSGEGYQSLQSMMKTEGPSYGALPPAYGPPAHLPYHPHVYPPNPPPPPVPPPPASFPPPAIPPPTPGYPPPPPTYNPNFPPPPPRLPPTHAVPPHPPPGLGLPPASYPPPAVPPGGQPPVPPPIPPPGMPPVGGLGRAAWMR

On to `Nc1nc(N[C@H]2C[C@@H]3CC[C@H]2C3)sc1C(=O)c1ccccc1[N+](=O)[O-]` (relative stereo) [MC180295], for which the IC50 (usually the concentration that gives 50% inhibition) against CDK14/cyclin Y (PFTK1) turned out to be 528 nM; against CDK16/cyclin Y (PCTAIRE), 1180 nM; at CDK17/cyclin Y (PCTK2) it was 438 nM; at CDK18/cyclin Y (PCTK3) it was 1060 nM; against CDK19/cyclin C it was 814 nM; at CDK3/cyclin E2, 401 nM. Also, the half-inhibitory concentration (IC50) on CDK6-Cyclin D3 turned out to be 712 nM; at CDK8/cyclin C, 501 nM; against CDK9/cyclin K, 49 nM; on CDK9/cyclin T1, 12 nM; at CDK9/cyclin T2 it was 3 nM; in the assay with CaCO2, 107 nM. The IC50 in the assay with Cama-1 is 624 nM; in the assay on HS936T, 391 nM; in the assay on J-Tag, 112 nM; in the assay with KG-1a, 82.3 nM; in the assay with M14, 305 nM; in the assay with MOLM-13, 44 nM. The IC50 with MV4-11 worked out at 28 nM; with UC6 it was 143 nM; with VACCC257, 343 nM.

Take `Nc1nc(N[C@H]2C[C@@H]3CC[C@H]2C3)sc1C(=O)c1ccccc1[N+](=O)[O-]` [MC180380]: in the assay with HT29 cells, the survival entry was “extending survival longer than MC180379”.
